Measurements as given in patent US20120276098A1, “DRUG FUSIONS AND CONJUGATES WITH EXTENDED HALF LIFE” (priority 2009, published 2012).
Where two headings read alike, the source gives them in different places.

What was measured:
[1] = target: GLP1R (Homo sapiens, UniProt P43220); assay: GLP-1 receptor binding assay (GLP-1R BA), CHO 6CRE GLP1R luciferase reporter cells; format: cell-based; design: expressed in transfected cells; host or cells: CHO K1 (CHO 6CRE GLP1R cells)
Protocol: Fusions were buffer exchanged into 100 mM […], 20 mM citrate pH 6.2. Meanwhile,CHO 6CRE GLP1R cells (CHO K1 cells (obtainable from the American Type Tissue Collection, ATCC) stably transfected with 6 cAMP response element driving a luciferase reporter gene and also with the human GLP-1 receptor) were seeded at 2×10^5cells/mL in suspension media. Suspension culture was maintained for 24 hours. Cells were then diluted into 15 mM HEPES buffer (obtainable from Sigma), containing 2 mM L glutamine (2.5×10^5 cells/ml) and dispensed into 384-well plates containing 10 ul/well of the compound to be assayed. After the addition of assay control, plates were returned to the incubator for 3 h at 37° C. and 5% CO2. […] Plates were placed in the reader (Viewlux, Perkin Elmer) and pre-incubated for 5 minutes prior to reading the […] and plotting of results. Compound was assayed at a range of concentrations in the presence and absence of 10 uM albumin, allowing a dose response curve to be fitted with and without the albumin.

[2] = test system: db/db C57BL/6J mice; assay: Chronic diabetes efficacy study in db/db mice, peptide-AlbudAbs alone and combined; format: in vivo, mouse; conditions: for decrease in glycosylated HbAlc: baseline vs day 16; for plasma insulin levels: day 16
Protocol: Male db/db C57BL/6J mice (Jackson Labs, Bar Harbor, Me.) were used for all experiments. The db/db mice (B6.Cg-m +/+ Leprdb/J) and controls were group-housed by the vendor. The db/db mice (10-12 weeks of age), and age-matched controls were shipped to GSK where they were single-housed and maintained at constant temperature (approximately 22° C.) with 12 hr light/dark cycle (lights on from 5:00 AM to 5:00 PM). Mice were given ad libitum access to food (LabDiet 5K67, 16% fat for db/db and their controls) and water. All animal protocols were approved by the institutional animal care and use committee at GlaxoSmithKline in Research Triangle Park, N.C. The peptide-AlbudAbs were prepared fresh daily. The correct dosing concentration of the drug was obtained by diluting the master stock using a citrate vehicle buffer comprised of 100 mM NaCl, 20 mM citric acid, pH 6.2 (filter sterilized). For combination dosing, the drugs were mixed together so that only one injection would be required.
Chronic Diabetes Efficacy Studies: The db/db mice and age-matched lean controls were habituated in house 2 weeks before the start of the study. Animals were dosed every two days between 2-4 pm subcutaneously with a dose volume of 5 ml/kg over a period of 15 days. A three day vehicle lead in period was used before the start of drug with the first day being vehicle and the second two days being mock injections. Baseline fat mass and lean mass measurements were taken 3 days before the start of drug and on day 15 using a QMR instrument (Echo Medical Systems, Houston, Tex.) Body weight measurements were taken every Monday, Wednesday, and Friday starting four days before the first drug dose. […] Food hopper weights were measured every weekday starting 4-6 days before the first drug dose, allowing for the calculation of food intake. Animals that created excessive food spillage were removed prior to the beginning of the study. During the study, excess food was removed from the cage and added to the food hopper weights for increased accuracy. Eight animals (n=8) were used for the lean control group and eight animals (n=8) were used for all other treatment groups. A pair-fed control was included in which the daily food intake for the combination ED80 group was calculated and that amount of food was given to the pair-fed group to eat the next day. Sixteen days after the start of drug treatment, animals were fasted for at least 4 hours before collection of whole blood, plasma, and serum samples via terminal cardiac exsanguinations. The whole blood was used to determine the % HbAlc, the plasma was used for a gastrointestinal hormone panel, and the serum was used to access multiple chemistries. Finally, major organs and tissues were collected (heart, kidney, liver, lung, stomach, duodenum, colon, pancreas, brown adipose, white adipose, carcass) on day 16 and fixed in 10% neutral buffered formalin for macroscopic and microscopic histological examination.

[3] = ED20 doses: PYY-AlbudAb 0.1 mg/kg, Exendin-4-AlbudAb 0.01 mg/kg, Combo ED20

GLP1R, sequence (P43220 24-463): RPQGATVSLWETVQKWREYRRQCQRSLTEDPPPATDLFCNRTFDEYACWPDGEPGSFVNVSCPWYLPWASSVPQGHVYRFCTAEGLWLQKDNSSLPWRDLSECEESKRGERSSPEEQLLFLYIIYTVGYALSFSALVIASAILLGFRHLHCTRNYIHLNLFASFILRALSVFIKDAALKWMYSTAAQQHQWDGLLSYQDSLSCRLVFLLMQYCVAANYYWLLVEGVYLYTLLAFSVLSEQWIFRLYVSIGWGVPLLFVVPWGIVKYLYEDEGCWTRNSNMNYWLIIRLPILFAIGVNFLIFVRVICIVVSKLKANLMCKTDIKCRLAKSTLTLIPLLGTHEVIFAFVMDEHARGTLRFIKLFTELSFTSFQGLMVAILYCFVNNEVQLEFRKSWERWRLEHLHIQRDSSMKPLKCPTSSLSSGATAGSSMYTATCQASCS

DAT 0115: genetic fusion: exendin-4, (G4S)3 linker, 7h-14 AlbudAb, SEQ ID NO 2
EC50 ([1]; read-out: GLP-1R BA (10 uM albumin) EC50 (pM) n = 2, presence of 10 uM albumin): 38 pM | EC50 ([1]; read-out: GLP-1R BA EC50 (pM) n = 3, absence of albumin): 8 pM | inhibition of weight gain (in words) ([2]; PYY-AlbudAb 1.0 mg/kg, Exendin-4-AlbudAb 0.1 mg/kg, Combo ED80): effective at inhibiting weight gain | decrease in glycosylated HbAlc [2, 3]: no significant changes | decrease in glycosylated HbAlc ([2]; ED80 doses: PYY-AlbudAb 1.0 mg/kg, Exendin-4-AlbudAb 0.1 mg/kg, Combo ED80): 0.80% | decrease in body weight from vehicle ([2]; day 15, ED80 doses: PYY-AlbudAb 1.0 mg/kg, Exendin-4-AlbudAb 0.1 mg/kg, Combo ED80): 9.2% | decrease in body weight relative to vehicle control ([2]; day 15, PYY-AlbudAb 0.1 mg/kg, Exendin-4-AlbudAb 0.01 mg/kg): no significant effect | plasma insulin levels [2, 3]: trends towards increases | plasma insulin levels ([2]; ED80 doses: PYY-AlbudAb 1.0 mg/kg, Exendin-4-AlbudAb (dose not given), Combo ED80): 32036 pg/mL
